Experimental data: paper PMC5989765, “The safety, tolerability, and pharmacokinetic profile of GSK2838232, a novel 2nd generation HIV maturation inhibitor, as assessed in healthy subjects” (Pharmacology Research & Perspectives, 2018)
Entries after “also recorded” stand apart in the source; their conditions may differ.

Tests used:
[1] = Study 200912: single dose 100-200 mg, SDD versus nonmicronized API PiB, healthy subjects; format: in vivo, human; details: for Cmax / AUC / half-life / Tmax / concentration at 24 h: human, plasma, oral; for Cmax / AUC / half-life / Tmax / concentration at 24 h / CL/F: fasted; for Cmax / AUC / half-life / CL/F: geometric mean (95% CI); for AUC: read-out: AUC(0‐∞); for half-life: read-out: t½ (converted); for Tmax / concentration at 24 h: median (range); for concentration at 24 h: read-out: C24
Text: This was a double‐blind, randomized, placebo‐controlled, single‐dose escalation study to investigate the safety, tolerability, and PK of higher single doses of GSK2838232 (Part A) and to evaluate the relative bioavailability of the SDD and crystalline Active Pharmaceutical Ingredient (API) of GSK2838232 (Part B) in healthy subjects dosed as PiB.
Part A was originally planned as a double‐blind, randomized, placebo‐controlled, 4‐period, single‐dose escalation design. Subjects were randomized 3:1 to receive GSK2838232 or placebo. Periods 1 and 2 investigated dosing with 200 mg SDD or nonmicronized API. Further planned dosing of RTV‐boosted single doses of 20 mg and 50 mg SDD was not performed due to early termination of the study to evaluate a serious adverse event (SAE) of a cardiovascular nature (see Safety discussion).
Part B was conducted in a separate group of subjects and was not dependent on the results of Part A. This was a randomized, open‐label, 3‐period, crossover design to assess the relative bioavailability of the nonmicronized API PiB versus the original SDD formulation at a 100 mg dose level (Periods 1 and 2). […] Subjects were randomized 1:1 to each dosing sequence.
(§1) Blood samples were taken via an indwelling cannula or by direct venipuncture, collected into a di‐potassium ethylenediaminetetraacetic acid (K2 EDTA) tube, and placed on wet ice. Samples were centrifuged at approximately 1500g for 10 minutes at approximately 4°C. Exactly 500 μL of the resulting plasma was transferred into labeled 1.4 mL Matrix TrakMate Tubes containing exactly 500 μL of 50 mmol/L citrate buffer, pH 4.0, and mixed well. When 500 μL of plasma was not able to be transferred, the ratio of plasma to citrate buffer was kept at 1:1. Buffered plasma samples were kept on ice and frozen at −70°C within 1 hour of collection. Plasma samples were analyzed for GSK2838232 using a validated analytical method based on protein precipitation, followed by high performance liquid chromatography with tandem mass spectrometry (HPLC/MS/MS) analysis.
(§2) Extracts were analyzed using HPLC (Shimadzu, Nexera, 30 series) and tandem mass spectrometry detection (HPLC‐MS/MS). The mass spectrometer used was an API‐5500 using IonSpray interface (500 V) in positive mode monitoring. The mass transitions were 809.5 to 255.1 and 816.5 to 262.1 for GSK2838232 and [2H7] GSK2838232 (the isotopically labeled internal standard), respectively. The chromatographic conditions utilized a Waters Acquity UPLC BEH C18 column (50 × 2.1 mm, 1.7 μm) with mobile phases consisting of 1 mmol/L ammonium formate:formic acid (100:0.005) (mobile phase A) and acetonitrile:formic acid (100:0.1) (mobile phase B) at a flow rate of 0.6 mL/min, with pump B at 63% held for 2 minutes. The assay was validated to have precision (%RSD) of 0.7%‐6.5% (within‐run) and 1.0%‐5.9% RSD (between‐run) and with accuracy (%bias) of 0.0%‐1.6%. […] The lower limit of quantification (LLQ) was 0.5 ng/mL, using a 50 μL aliquot of K2EDTA acidified plasma. The higher limit of quantification (HLQ) was 500 ng/mL.
(§3) The PK parameters were calculated by standard noncompartmental analysis based on actual sampling times using WinNonlin Version 6.3 or higher. Estimation of AUC used the linear up/log down trapezoidal rule.

[2] = Study 204953 Part 1B: relative bioavailability capsule versus API PiB and food effect, with RTV; format: in vivo
Procedure: (§4) This study was planned as an extension of the previously conducted single‐ and multiple‐dose escalation studies described above. It was a double‐blind, placebo‐controlled, single and repeat dose escalation study of micronized API GSK2838232 with RTV conducted in three parts (Part 1A, Part 1B, and Part 2).
(§5) In Part 1A, a cohort of subjects was given single doses of 50, 100, and 250 mg of GSK2838232 with RTV, following 2 days of RTV predosing, in a sequential dose‐escalation design. Part 1B studied the relative bioavailability of GSK2838232 given as 100 mg (2 × 50 mg) capsules versus the reference API (PiB) in a two‐period crossover design with RTV, following 2 days of RTV predosing. In Period 3, subjects took the capsule formulation and RTV with a moderate fat meal (30% of calories from fat).
as §1, §2, §3
For the assessment of relative bioavailability of the capsule formulation compared to the PiB suspension and of the food effect using the capsule formulation (all with RTV), PK parameters were separately analyzed for each treatment using a mixed effects model with fixed effect terms for period and treatment following loge transformation. Subject was treated as a random effect in the model. Point estimates and their associated 90% CIs were constructed for the differences in PK parameter values between the test and reference treatments. The point estimates and their associated 90% CIs were then back‐transformed to provide point estimates and 90% CIs for the ratios of PK parameters from test and reference treatments on the original scale.

[3] = Study 204953 Part 1A: single doses 50-250 mg API PiB with RTV, healthy subjects; format: in vivo, human; details: for Cmax / Tmax / concentration at 24 h / AUC / half-life: human, plasma, oral; for Tmax / concentration at 24 h: median (range); for concentration at 24 h: read-out: C24; for AUC: read-out: AUC(0‐∞); for half-life: read-out: t½ (converted); for dose proportionality of exposure (AUC and C max): single doses 50 to 250 mg with RTV
Procedure: as §4, §5, §1, §2, §3

[4] = 20 mg, single 20 mg API PiB, with ritonavir (predosing 10 days), Study 200912
[5] = 100 mg, single 100 mg API PiB, without ritonavir, Study 200912
[6] = 100 mg, single 100 mg SDD PiB, without ritonavir, Study 200912
[7] = 200 mg, single 200 mg API PiB, without ritonavir, Study 200912
[8] = 200 mg, single 200 mg SDD PiB, without ritonavir, Study 200912
[9] = 100 mg Fed (moderate, 30% fat meal) versus 100 mg fasted, API capsule formulation with RTV, Study 204953
[10] = Capsule : API PiB, single 100 mg + ritonavir, Study 204953
[11] = single 50 mg API PiB, fasted, with ritonavir (2 days predosing)
[12] = single 100 mg API PiB, fasted, with ritonavir (2 days predosing), geometric mean (95% CI)
[13] = single 100 mg API PiB, fasted, with ritonavir (2 days predosing)
[14] = single 250 mg API PiB, fasted, with ritonavir (2 days predosing), geometric mean (95% CI)
[15] = single 250 mg API PiB, fasted, with ritonavir (2 days predosing)

In the case of `CC(C)C1=C2[C@H]3CC[C@@H]4[C@@]5(C)CC[C@H](OC(=O)CC(C)(C)C(=O)O)C(C)(C)[C@@H]5CC[C@@]4(C)[C@]3(C)CC[C@@]2([C@@H](O)CN(CCN(C)C)Cc2ccc(Cl)cc2)CC1=O` [GSK2838232], the “dose proportionality of exposure” value ([1]; API, 100 mg to 200 mg single doses, Study 200912) is reported as “proportional increase in exposure”, the Cmax [1, 4] is reported as 0.00489 µg/mL and the AUC [1, 4] is reported as 0.224 µg·h/mL. It also gave a half-life [1, 4] of 41.1 h, a Tmax [1, 4] of 5.01 h and a concentration at 24 h [1, 4] of 0.00256 µg/mL. The Cmax [1, 5] was 0.00615 µg/mL, the AUC [1, 5] was 0.0917 µg·h/mL and the half-life [1, 5] was 12.5 h. The Tmax [1, 5] was 3.64 h, the concentration at 24 h [1, 5] was 0.00202 µg/mL and the Cmax [1, 6] was 0.0187 µg/mL. The AUC [1, 6] was 0.265 µg·h/mL, the half-life [1, 6] was 16.9 h and the Tmax [1, 6] was 2.75 h. The concentration at 24 h [1, 6] was 0.00387 µg/mL, the Cmax [1, 7] was 0.0136 µg/mL and the AUC [1, 7] was 0.189 µg·h/mL. For the same compound, the half-life [1, 7] was 15.9 h, the Tmax [1, 7] was 2.76 h and the concentration at 24 h [1, 7] was 0.00285 µg/mL. For the same compound, the Cmax [1, 8] was 0.0293 µg/mL, the AUC [1, 8] was 0.381 µg·h/mL and the half-life [1, 8] was 16.6 h. For the same compound, the Tmax [1, 8] was 1.75 h, the concentration at 24 h [1, 8] was 0.00518 µg/mL and the CL/F ([1]; single 20 mg API PiB, with ritonavir (predosing 10 days), Study 200912) was 89.2 (63.3, 126) L/h. For the same compound, the CL/F ([1]; single 100 mg API PiB, without ritonavir, Study 200912) was 1090 (670, 1774) L/h, the CL/F ([1]; single 100 mg SDD PiB, without ritonavir, Study 200912) was 378 (256, 559) L/h and the CL/F ([1]; single 200 mg API PiB, without ritonavir, Study 200912) was 1060 (686, 1638) L/h. For the same compound, the CL/F ([1]; single 200 mg SDD PiB, without ritonavir, Study 200912) was 525 (399, 690) L/h, the “dose proportionality of exposure” value ([1]; single doses 100 mg to 200 mg, SDD formulation, without RTV) was “less‐than‐proportional increase” and the “Geometric least square mean ratio [90% CI], AUC(0‐∞)” value [2, 9] was 1.58 (1.412,1.777). The “Geometric least square mean ratio [90% CI], C max” value [2, 9] was 1.62 (1.376,1.911), the “Ratio of Geometric Least Square Means, AUC(0‐∞)” value [2, 10] was 1.43 and the “Ratio of Geometric Least Square Means, C max” value [2, 10] was 1.58. The “bioavailability after meal relative to the fasted state” value ([2]; capsule formulation with RTV, moderate fat (30%) meal, Study 204953) was “approximately 1.6 fold”, the “C24, capsule relative to PiB suspension” value ([2]; single 100 mg with RTV) was 1.4 fold and the “C max, capsule relative to PiB suspension” value ([2]; single 100 mg with RTV) was 1.6 fold. The “t½ geometric LS mean ratio, capsule versus PiB” value ([2]; single 100 mg with RTV, data not shown) was “no difference”, the Cmax ([3]; single 50 mg API PiB, fasted, with ritonavir (2 days predosing), geometric mean (95% CI)) was 0.0157 µg/mL and the Tmax [3, 11] was 3 h. The concentration at 24 h [3, 11] was 0.00726 µg/mL, the Cmax [3, 12] was 0.0247 µg/mL and the AUC [3, 12] was 0.846 µg·h/mL. It also gave a half-life [3, 12] of 17.9 h, a Tmax [3, 13] of 5 h and a concentration at 24 h [3, 13] of 0.0132 µg/mL. The Cmax [3, 14] was 0.063 µg/mL, the AUC [3, 14] was 1.69 µg·h/mL and the half-life [3, 14] was 17.9 h. The Tmax [3, 15] was 5.98 h, the concentration at 24 h [3, 15] was 0.024 µg/mL and the CL/F [3, 12] was 118 (93.3, 150) L/h. For the same compound, the “dose proportionality of exposure (AUC and C max)” value [3] was “proportional PK; also recorded: proportional pharmacokinetics” and the “dose proportionality of exposure (AUC and C max)” value ([3]; listed as GSK283832) was “generally dose proportional”.
